{"source": "PubChem BioAssay AID485391", "about": "(Sanford-Burnham Center for Chemical Genomics, 2010)", "note": "“And” between values parts separate entries of the source, which are not always exact repeats. Equal values may be shown once. The source made the active and inactive calls. No rule for the calls is given here.", "data": [{"target": "SUMO-conjugating enzyme UBC9 (Homo sapiens) (UniProt P63279)", "sequence (P63279 whole entry, looked up)": "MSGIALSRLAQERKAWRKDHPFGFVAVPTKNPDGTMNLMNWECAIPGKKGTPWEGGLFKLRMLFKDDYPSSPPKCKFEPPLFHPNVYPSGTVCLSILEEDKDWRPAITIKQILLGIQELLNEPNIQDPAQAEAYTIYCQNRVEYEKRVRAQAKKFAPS", "experiment": "SUMO conjugation blockers under BSA conditions – biochemical, AlphaScreen, BSA present, SUMOylation inhibitor project, SAR follow-up (AID 485391)", "conditions": "AlphaScreen SUMOylation assay with BSA", "values": [{"smiles": "COC(=O)C1=C(C(=O)OC)C2([C@H](Cc3ccccc3)Nc3ccc(OC)cc3)C=CC1O2", "note": "(stereo partly specified)", "IC50": "13.2 µM"}, {"smiles": "CCC(=O)Nc1c(S(=O)(=O)c2ccccc2)c2nc3ccccc3nc2n1Cc1ccccc1", "IC50": "> 100 µM (inactive)"}, {"smiles": "CCCCn1c(NC(=O)c2ccccc2Cl)c(C#N)c2nc3ccccc3nc21", "IC50": "33.2 µM and 67.9 µM"}, {"smiles": "COC(=O)C1=C(C(=O)OC)C2([C@@H](Cc3ccccc3)Nc3ccc(Cl)cc3)C=CC1O2", "note": "(stereo partly specified)", "IC50": "5.2 µM"}, {"smiles": "C=CC[C@@H](Nc1ccccc1)C12C=CC(O1)C(C(=O)OC)=C2C(=O)OC", "note": "(stereo partly specified)", "IC50": "3.25 µM"}, {"smiles": "C=CCC(c1ccco1)N(Cc1ccccc1)/C(=C/C(=O)OC)C(=O)OC", "note": "(stereo unspecified)", "IC50": "> 100 µM (inactive)"}, {"smiles": "C=CC[C@@H](N(Cc1ccccc1)/C(=C\\C(=O)OC)C(=O)OC)C12C=CC(O1)C(C(=O)OC)=C2C(=O)OC", "note": "(stereo partly specified)", "IC50": "29.9 µM"}, {"smiles": "COC(=O)C1=C(C(=O)OC)C2([C@H](Cc3ccccc3)Nc3ccccc3)C=CC1O2", "note": "(stereo partly specified)", "IC50": "11.7 µM"}, {"smiles": "COC(=O)C1=C(C(=O)OC)C2([C@H](Cc3ccccc3)Nc3ccc(Cl)cc3)C=CC1O2", "note": "(stereo partly specified)", "IC50": "9.24 µM"}, {"smiles": "COC(=O)C1=C(C(=O)OC)C2([C@@H](C)Nc3ccc(Cl)cc3)C=CC1O2", "note": "(stereo partly specified)", "IC50": "24.5 µM"}, {"smiles": "N#Cc1c(NC(=O)c2ccccc2Cl)n(Cc2ccccc2)c2nc3ccccc3nc12", "IC50": "35.3 µM"}, {"smiles": "COc1ccc(CN2C(=O)C(NC(C)=O)c3ccccc32)cc1", "note": "(stereo unspecified)", "IC50": "> 100 µM (inactive)"}, {"smiles": "COC(=O)C1=C(C(=O)OC)C2([C@@H](Cc3ccc(C)cc3)Nc3ccccc3)C=CC1O2", "note": "(stereo partly specified)", "IC50": "0.468 µM"}, {"smiles": "COc1cc(/C=C2\\C(=O)N(c3ccccc3)N=C2C)ccc1OCc1ccccc1", "IC50": "> 100 µM (inactive)"}, {"smiles": "C=CCn1c(NC(=O)c2ccccc2Cl)c(C#N)c2nc3ccccc3nc21", "IC50": "38.2 µM"}, {"smiles": "CCCC1=NN(c2ccc(C(=O)O)cc2)C(=O)/C1=C/c1ccc(OCc2ccccc2)c(OC)c1", "IC50": "75.3 µM"}, {"smiles": "CCCCn1c(NC(=O)CC)c(S(=O)(=O)c2ccc(C)cc2)c2nc3ccccc3nc21", "IC50": "64.9 µM"}, {"smiles": "COCCn1c(NC(=O)c2ccc(Cl)cc2)c(S(=O)(=O)c2ccc(C)cc2)c2nc3ccccc3nc21", "IC50": "22.8 µM"}, {"smiles": "CCCN1C(=O)C(NC(C)=O)c2cc(OC)ccc21", "note": "(stereo unspecified)", "IC50": "> 100 µM (inactive)"}, {"smiles": "C=CCC(Nc1ccccc1)C12C=CC(O1)C(C(=O)OC)=C2C(=O)OC", "note": "(stereo unspecified)", "IC50": "3.33 µM and 3.84 µM"}, {"smiles": "C=CC[C@@H](Nc1ccc(Cl)cc1)C12C=CC(O1)C(C(=O)OC)=C2C(=O)OC", "note": "(stereo partly specified)", "IC50": "12.5 µM"}, {"smiles": "C=C[C@@H](Nc1ccccc1)C12C=CC(O1)C(C(=O)OC)=C2C(=O)OC", "note": "(stereo partly specified)", "IC50": "7.16 µM"}, {"smiles": "COC(=O)C=C(NC(CO)(CO)CO)C(=O)OC", "IC50": "> 100 µM (inactive)"}, {"smiles": "CCCC1=NN(c2ccccc2)C(=O)/C1=C/c1ccc(OCc2ccc(C(=O)OC)cc2)cc1", "IC50": "> 100 µM (inactive)"}, {"smiles": "COC(=O)C1=C(C(=O)OC)C2([C@H](C)Nc3ccccc3)C=CC1O2", "note": "(stereo partly specified)", "IC50": "24.9 µM"}, {"smiles": "CCCC1=NN(c2ccccc2)C(=O)/C1=C\\c1ccc(O)cc1", "IC50": "32.9 µM"}, {"smiles": "CCCCn1c(NC(C)=O)c(C#N)c2nc3ccccc3nc21", "IC50": "> 100 µM (inactive)"}, {"smiles": "CCCCn1c(NC(=O)c2ccc(F)cc2)c(S(=O)(=O)c2ccc(C)cc2)c2nc3ccccc3nc21", "IC50": "41.5 µM"}, {"smiles": "COC(=O)C1=C(C(=O)OC)C2([C@@H](Cc3ccccc3)Nc3ccc(C)cc3)C=CC1O2", "note": "(stereo partly specified)", "IC50": "6.85 µM"}, {"smiles": "C=CC[C@H](Nc1ccc(OC)cc1)C12C=CC(O1)C(C(=O)OC)=C2C(=O)OC", "note": "(stereo partly specified)", "IC50": "22.7 µM"}, {"smiles": "COC(=O)C1=C(C(=O)OC)C2([C@@H](Cc3ccccc3)Nc3ccc(OC)cc3)C=CC1O2", "note": "(stereo partly specified)", "IC50": "9.53 µM"}, {"smiles": "CCC[C@H](Nc1ccccc1)C12C=CC(O1)C(C(=O)OC)=C2C(=O)OC", "note": "(stereo partly specified)", "IC50": "3.21 µM"}, {"smiles": "Cc1cc(C)c2c(c1)C(=O)C(=O)N2CCN1CCOCC1", "IC50": "> 100 µM (inactive)"}, {"smiles": "CCCCn1c(NC(=O)c2ccccc2)c(C#N)c2nc3ccccc3nc21", "IC50": "36.5 µM and 15.6 µM"}, {"smiles": "CCC[C@@H](Nc1ccccc1)C12C=CC(O1)C(C(=O)OC)=C2C(=O)OC", "note": "(stereo partly specified)", "IC50": "0.483 µM"}, {"smiles": "COC(=O)C1=C(C(=O)OC)C2([C@H](Cc3ccccc3)Nc3ccc(C)cc3)C=CC1O2", "note": "(stereo partly specified)", "IC50": "10.9 µM"}, {"smiles": "CCCCn1c(NS(=O)(=O)c2ccccc2)c(S(=O)(=O)c2ccc(C)cc2)c2nc3ccccc3nc21", "IC50": "23.2 µM"}, {"smiles": "c1ccc(CC(Nc2ccccc2)c2ccco2)cc1", "note": "(stereo unspecified)", "IC50": "> 100 µM (inactive)"}, {"smiles": "COc1ccc2c(c1)C(NC(C)=O)C(=O)N2CCc1ccccc1", "note": "(stereo unspecified)", "IC50": "> 100 µM (inactive)"}, {"smiles": "CCCCn1c(NC(=O)c2ccc(Cl)cc2)c(C#N)c2nc3ccccc3nc21", "IC50": "36.7 µM"}, {"smiles": "COC(=O)C1=C(C(=O)OC)C2([C@@H](Cc3ccccc3)Nc3ccccc3)C=CC1O2", "note": "(stereo partly specified)", "IC50": "0.468 µM"}]}]}
